From patent EP0329904A1, “Use of quinolizine and quinolizinone derivatives in the manufacture of medicaments for the treatment of anxiety” (MERRELL DOW PHARMACEUTICALS INC., priority 1988, dated 1989)
Structures can show the parent of a compound that is named as a salt.

System: Von Bezold-Jarisch Reflex induced by 5-HT
Assay: Von Bezold-Jarisch Reflex induced by 5-HT injected intravenously
Assay type: in vivo
Conditions: rat
Excerpt: The activity of these compounds against 5-HT can be assessed in vivo by measurement of the effect of the compound on the Von Bezold-Jarisch Reflex induced by 5-HT injected intravenously into the rat (see Paintal A.S., Physiol. Rev. 53, 159-227, 1973; J.R. Fozard, Naunyn-Schmiedeberg's Arch. Pharmacol., 326, 1984, 36-44). The transient cardiac slowing arises from an increased afferent vagus activity arising from stimulation by 5-HT of sensory afferent fibers in and around the heart.

[1] = doses of 0.01-0.1 mg/kg given intravenously
[2] = doses of 0.25-1 mg/kg given orally

| SMILES | suppression of the Von Bezold-Jarisch Reflex response [1] | suppression of the Von Bezold-Jarisch Reflex response [2] |
| --- | --- | --- |
| O=C(OC1CC2CC3CC(C1)N2CC3=O)c1c[nH]c2ccccc12 (stereo not drawn) [endo-hexahydro-8-(3-indolylcarbonyloxy)-2,6-methano-2H-quinolizin-3(4H)one hydrochloride] | suppressed the response dose-dependently | suppressed the response dose-dependently |
| Cc1cc(C)cc(C(=O)OC2CC3CC4CC(C2)N3CC4=O)c1 (stereo not drawn) [endo-8-(3,5-dimethylbenzoyloxy)hexahydro-2,6-methano-2H-quinolizin-3(4H)-one] | suppressed the response dose-dependently | suppressed the response dose-dependently |
